Test results from publication PMC12748266, “Testing antimicrobial peptides inhibiting protein synthesis in living E. coli and K. pneumoniae using bio-orthogonal non-canonical amino-acid tagging” (Frontiers in Microbiology, 2025).
No end group written: not given here.

Test system: K. pneumoniae ribosomes
Test: In vitro translation assay (PURExpress, firefly luciferase) with purified ribosomes
Format: biochemical, K. pneumoniae ATCC 13883
Settings: peptide at 5 μM, 30 min, 32 °C, luciferase luminescence, water control = 100%
Protocol: The ribosomes used in this study were purified as described previously ([Di Stasi et al., 2025]). Briefly, to purify the 70S ribosomes of ESKAPE pathogens, the bacterial strains E. faecium ATCC 19434 S. aureus ATCC 25923, K. pneumoniae ATCC 13883, A. baumannii ATCC 19606, P. aeruginosa ATCC 27853 and E. cloacae ATCC 13047 were grown in 2 L of Luria-Bertani (LB) medium, at 37 °C, until the mid-log phase was reached. After centrifugation at 7,000 rpm (12,000 × g) for 15 min at 20 °C (JLA rotor 8.1000), the bacterial pellet was resuspended in 50 mL of saline (0.9% w/v NaCl) and re-centrifuged at 15,000 rpm (27,000 × g) for 10 min at 20 °C (JA rotor 25.50). […] Finally, the solution was cleared of the last remaining impurities by centrifugation at 15,000 rpm (18,000 × g) for 15 min at 4 °C, and the ribosomes subjected to quantification by Nanodrop (A260). […]
The in vitro translation assay was performed by using the Δ ribosome from the E. coli PURExpress system New England Biolabs (NEB), as reported previously ([Di Stasi et al., 2025]; [Raulf et al., 2025]). […] Finally, 40 μL of luciferase assay substrate solution were added to the wells (Promega, E1501), and the luminescence measured using a plate reader (Tecan Infinite 200 PRO). The negative control of the test was nuclease-free water in place of the antibiotic, whose values were used to normalize the absolute luminescence values of the samples. […]

**Q.** For RRIRPRPPRLPRPRPR [Bac7(1–16)], which “Inhibition of in vitro protein synthesis” value is on record?
**A.** Its value is 90%.
